Here are results for four molecules from PMC10840383, “Clinical features, functional consequences, and rescue pharmacology of missense GRID1 and GRID2 human variants” (Human Molecular Genetics, 2023).

The structures appear in SMILES notation. Residue numbers refer to the chain shown, from its start. pEC50, pIC50: −log10 of the molar value. “And” between values parts separate entries of the source, which are not always exact repeats. Equal entries are not always repeated. “Also recorded” adds a separate entry of the source. Where two headings read alike, the source gives them in different places.

The target in test [1] is T1, GluD2-A654D (Rattus norvegicus, UniProt Q63226, A654D).
T1 construct: expressed in transfected cells; host or cells: Xenopus laevis oocytes injected with cRNA
T1 sequence (Q63226 24-1007 A654D): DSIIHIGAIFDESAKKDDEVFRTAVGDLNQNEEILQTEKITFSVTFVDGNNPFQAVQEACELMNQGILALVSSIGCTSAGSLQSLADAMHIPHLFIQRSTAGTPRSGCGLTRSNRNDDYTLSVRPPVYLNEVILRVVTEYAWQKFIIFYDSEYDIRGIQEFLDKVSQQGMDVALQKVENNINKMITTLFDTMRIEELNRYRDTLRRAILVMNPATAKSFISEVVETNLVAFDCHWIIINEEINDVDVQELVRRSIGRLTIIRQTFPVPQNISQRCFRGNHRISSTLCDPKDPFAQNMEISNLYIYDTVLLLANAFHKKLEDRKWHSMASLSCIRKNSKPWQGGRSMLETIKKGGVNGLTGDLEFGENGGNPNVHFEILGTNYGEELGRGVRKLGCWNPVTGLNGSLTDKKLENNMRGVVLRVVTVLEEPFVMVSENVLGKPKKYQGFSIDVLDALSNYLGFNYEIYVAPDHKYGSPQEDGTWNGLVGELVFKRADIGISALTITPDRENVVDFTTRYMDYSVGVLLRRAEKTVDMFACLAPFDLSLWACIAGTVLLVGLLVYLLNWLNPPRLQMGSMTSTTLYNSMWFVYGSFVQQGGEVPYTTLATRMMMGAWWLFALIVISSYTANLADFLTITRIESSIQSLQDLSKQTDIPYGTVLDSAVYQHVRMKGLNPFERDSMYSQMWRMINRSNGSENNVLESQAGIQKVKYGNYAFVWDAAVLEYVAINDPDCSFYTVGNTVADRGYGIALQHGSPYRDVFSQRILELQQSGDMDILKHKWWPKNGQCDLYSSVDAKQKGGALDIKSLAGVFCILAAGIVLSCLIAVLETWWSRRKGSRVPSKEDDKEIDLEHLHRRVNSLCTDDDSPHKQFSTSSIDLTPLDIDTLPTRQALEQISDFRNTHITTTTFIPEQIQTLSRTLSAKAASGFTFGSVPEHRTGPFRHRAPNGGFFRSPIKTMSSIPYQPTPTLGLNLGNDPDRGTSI
The test is described as follows: TEVC of constitutive current, Xenopus oocytes expressing GluD2-A654D. The class given is cell-based.

Test [2] concerns the target T2, GluD2-T649A (Rattus norvegicus, UniProt Q63226, T649A).
T2 construct: expressed in transfected cells; host or cells: Xenopus laevis oocytes injected with cRNA
T2 sequence (Q63226 24-1007 T649A): T1 sequence (Q63226 24-1007 A654D) with T626A, D631A
The test is described as follows: TEVC of constitutive current, Xenopus oocytes expressing GluD2-T649A. The class given is cell-based. As to conditions: for pIC50: read-out: Pentamidine IC50.

Where [3] appears, read: normalized to NMDG+ − Na+ difference current.
Setting [4] is: 10 mM D-serine, positive = increase, negative = decrease of activity.
The mark [5] stands for this setting: percent of constitutive leak current (NMDG+/Na+ difference current).
[6] abbreviates: 100 μM pentamidine, positive = increase, negative = decrease of activity.

As a reminder, the pEC50 is the negative decadic logarithm of the EC50, by convention in mol/L. As for `[Ca+2]` [Ca^2+], the “Effect on constitutive current, in words” value in test [1] was “weak inhibitor; also recorded: modestly inhibited”. Further, the pEC50 is 3.77 in test [1] (modulation of constitutive current, inhibited by Ca2+ (not potentiated), read-out: Ca2+ EC50 [95% CI]); 3.54 in test [2] (potentiation of constitutive current, read-out: Ca2+ EC50 [95% CI]); 3.40 to 4.00 in test [2] (read-out: Ca2+ potentiation EC50). The “Ca2+ % Max (NMDG+ − Na+) Mean ± SEM” value is given as 82 ± 10 (12) % in test [1] (setting [3]) and 345 ± 55 (10) % in test [2] (setting [3]). In addition, the “Ca2+ EC50 A654T/EC50 variant” value turned out to be 0.88 in test [1] (ratio) and 0.52 in test [2] (ratio). Besides, the “Ca2+ EC50 of the relation Ca2+ concentration vs D-serine IC50” value in test [2] (Hill fit, Fig. S7A) was 630 µM. Also, the “Hill slope of the relation Ca2+ concentration vs D-serine IC50” value in test [2] (Hill fit, Fig. S7A) is listed as 1.4.

As to `N[C@H](CO)C(=O)O` [D-serine], the “Effect on constitutive current, in words” value in test [1] is recorded as “little effect; also recorded: near complete loss of D-serine potency”. Moreover, the “D-Serine effect (Baseline −10 mM D-Serine)” value in test [1] (setting [4]) is listed as −29 ± 10 (14) nA; in test [2] (setting [4]), −35 ± 5.6 (14) nA. Besides, the figures for the “D-serine % Max (NMDG+ − Na+) Mean ± SEM” value in test [1] (setting [5]) and in test [2] (setting [5]) were 85 ± 2.6 (15) % and 49 ± 2.5 (7) %, respectively. Besides, the “D-serine Hill slope” value in test [2] (1 mM Ca2+, Fig. S7B) is recorded as 2.0. The “D-serine Maximum” value in test [2] (1 mM Ca2+, Fig. S7B) turned out to be 54%.

The term pIC50 denotes the negative decadic logarithm of the IC50, by convention in mol/L. As to `CC12CC3CC(C)(C1)CC(N)(C3)C2` [Memantine, memantine], the pIC50 in test [1] (inhibition of constitutive current, read-out: Memantine IC50) was 4.26.

Consider `N=C(N)c1ccc(OCCCCCOc2ccc(C(=N)N)cc2)cc1` [Pentamidine, pentamidine], for which the “Pentamidine effect (Baseline −100 μM Pentamidine)” value in test [1] (setting [6]) is −700 ± 160 (14) nA; in test [2] (setting [6]) it was −18 ± 4.8 (14) nA. The pIC50 in test [1] (read-out: Pentamidine IC50) is 5.43; in test [2] (inhibition of constitutive channels), 7.43; in test [2] (inhibition of constitutive current, 1 mM Ca2+), 7.44. In addition, in test [2] (IC50 comparison), the “Fold increase in pentamidine potency on GluD2-T649A compared to GluD2-A654T” value is ~ 200 fold and > 200 fold.
